Data taken from patent US20020035061A1, “COMPOSITIONS AND METHODS FOR TREATING INFECTIONS USING CATIONIC PEPTIDES ALONE OR IN COMBINATION WITH ANTIBIOTICS” (priority 1996, published 2002).

What was measured:
Type in all cases: cell-based
P. aeruginosa = P. aeruginosa strain PA004
S. epidermidis = S. epidermidis strain SE010
E. faecium = E. faecium strain EFM002
P. mirabilis = experiment: Agarose dilution assay (MIC); details: P. mirabilis strain PM002
E. cloacae = E. cloacae strain ECL007
H. influenzae = experiment: Agarose dilution assay (MIC); details: H. influenzae strain HIN002
S. aureus = S. aureus strain SA010
E. coli = E. coli strain ECO005
[1] = test system: microorganisms with acquired resistance; experiment: microbe, parasite or virus in culture
S. pyogenes = experiment: Agarose dilution assay (MIC); details: S. pyogenes strain SPY005
S. maltophilia = S. maltophilia strain SMA002
bacterial isolates = experiment: microbe, parasite or virus in culture
S. pneumoniae = experiment: Agarose dilution assay (MIC)
A. calcoaceticus = A. calcoaceticus strain AC002
K. pneumoniae = K. pneumoniae strain KP001
E. faecalis = E. faecalis strain EFS002
S. marcescens = S. marcescens strain SMS003
[2] = A. baumannii ABI001, Tobramycin section
[3] = A. calcoaceticus 3, Piperacillin section
[4] = P. aeruginosa 15, Piperacillin section
[5] = P. aeruginosa PA008, Tobramycin section
[6] = P. aeruginosa PA025, Tobramycin section
[7] = S. marcescens SB1, Piperacillin section
[8] = peptide + Piperacillin, A. calcoaceticus 3
[9] = peptide + Piperacillin, P. aeruginosa 15
[10] = peptide + Piperacillin, S. marcescens SB1
[11] = peptide + Tobramycin, A. baumannii ABI001
[12] = peptide + Tobramycin, P. aeruginosa PA008
[13] = peptide + Tobramycin, P. aeruginosa PA025

ILRRVJPWWPWRRR [MBI 11B9CN]
>128 µg/mL: MIC (P. mirabilis) | MIC (E. cloacae) | MIC (H. influenzae) | Peptide MIC Alone [1, 4] | Peptide MIC Alone ([1]; S. maltophilia SMA027, Tobramycin section) | Peptide MIC Alone ([1]; S. maltophilia SMA031, Tobramycin section) | Peptide MIC Alone [1, 7] | Peptide MIC Alone (bacterial isolates; B. cepacia BC002, Tobramycin section) | Peptide MIC Alone (bacterial isolates; H. influenzae 3, Piperacillin section) | Peptide MIC Alone (bacterial isolates; H. influenzae SB1, Piperacillin section) | Peptide MIC Alone (bacterial isolates; [4]) | Peptide MIC Alone (bacterial isolates; S. maltophilia 5, Piperacillin section) | Peptide MIC Alone (bacterial isolates; S. maltophilia 13, Piperacillin section) | Peptide MIC Alone (bacterial isolates; S. maltophilia SMA029, Tobramycin section) | Peptide MIC Alone (bacterial isolates; [7]) | MIC (S. pneumoniae; S. pneumoniae strain SBSPN2) | MIC (S. pneumoniae; S. pneumoniae strain SPN044) | MIC (S. marcescens)
4 µg/mL: MIC (E. faecium) | MIC (S. aureus) | Tobramycin MIC + Peptide ([1]; A. baumannii ABI001) | Tobramycin MIC + Peptide ([1]; E. coli EC0006) | Tobramycin MIC + Peptide ([1]; S. maltophilia SMA027) | Tobramycin MIC + Peptide ([1]; S. maltophilia SMA031) | Tobramycin MIC + Peptide (bacterial isolates; A. baumannii ABI001) | Peptide MIC Alone (bacterial isolates; S. aureus 19 MRSA, Piperacillin section) | Tobramycin MIC + Peptide (bacterial isolates; S. maltophilia SMA029) | MIC (A. calcoaceticus)
0.5 µg/mL: Peptide MIC + Piperacillin (bacterial isolates; P. aeruginosa 23)
1 µg/mL: Peptide MIC + Piperacillin (bacterial isolates; S. aureus 19 MRSA) | Peptide MIC + Piperacillin (bacterial isolates; S. aureus SB2MRSA)
2 µg/mL: MIC (S. epidermidis) | Tobramycin MIC + Peptide ([1]; P. aeruginosa PA025) | Peptide MIC + Piperacillin ([1]; S. marcescens SB1) | Peptide MIC + Piperacillin (bacterial isolates; A. calcoaceticus 3) | Tobramycin MIC + Peptide (bacterial isolates; P. aeruginosa PA025) | Peptide MIC Alone (bacterial isolates; S. aureus SB2MRSA, Piperacillin section) | Peptide MIC + Piperacillin (bacterial isolates; S. marcescens SB1)
64 µg/mL: Peptide MIC + Piperacillin ([1]; P. aeruginosa 12) | Piperacillin MIC + Peptide ([1]; P. aeruginosa 12) | Peptide MIC + Piperacillin ([1]; P. aeruginosa 15) | Piperacillin MIC + Peptide ([1]; P. aeruginosa 15) | Peptide MIC + Tobramycin ([1]; P. aeruginosa PA008) | Peptide MIC + Tobramycin ([1]; P. aeruginosa PA025) | Tobramycin MIC + Peptide (bacterial isolates; B. cepacia BC002) | Peptide MIC + Piperacillin (bacterial isolates; P. aeruginosa 15) | Piperacillin MIC + Peptide (bacterial isolates; P. aeruginosa 15) | Peptide MIC Alone (bacterial isolates; P. aeruginosa 23, Piperacillin section) | Peptide MIC + Tobramycin (bacterial isolates; P. aeruginosa PA008) | Peptide MIC + Tobramycin (bacterial isolates; P. aeruginosa PA025) | Peptide MIC + Piperacillin (bacterial isolates; S. maltophilia 5) | Piperacillin MIC + Peptide (bacterial isolates; S. maltophilia 5) | Piperacillin MIC + Peptide (bacterial isolates; S. maltophilia 13)
0.25 µg/mL: Piperacillin MIC + Peptide (bacterial isolates; H. influenzae 3) | Piperacillin MIC + Peptide (bacterial isolates; H. influenzae SB1)
0.26: FIC [1, 10] | FIC (bacterial isolates; [10])
0.13: FIC (bacterial isolates; peptide + Piperacillin, P. aeruginosa 23) | FIC (bacterial isolates; peptide + Tobramycin, S. maltophilia SMA029)
0.38: FIC (bacterial isolates; peptide + Piperacillin, S. aureus 19 MRSA) | FIC (bacterial isolates; peptide + Piperacillin, S. maltophilia 13) | FIC (bacterial isolates; peptide + Tobramycin, B. cepacia BC002)
0.50: FIC [1, 9] | FIC [1, 11] | FIC [1, 12] | FIC (bacterial isolates; peptide + Piperacillin, H. influenzae 3) | FIC (bacterial isolates; peptide + Piperacillin, H. influenzae SB1) | FIC (bacterial isolates; [9]) | FIC (bacterial isolates; peptide + Piperacillin, S. maltophilia 5) | FIC (bacterial isolates; [11]) | FIC (bacterial isolates; [12])
0.56: FIC [1, 13] | FIC (bacterial isolates; [8]) | FIC (bacterial isolates; peptide + Piperacillin, S. aureus SB2MRSA) | FIC (bacterial isolates; [13])
0.125 µg/mL: Tobramycin MIC + Peptide ([1]; P. aeruginosa PA008) | Peptide MIC + Piperacillin (bacterial isolates; H. influenzae 3) | Peptide MIC + Piperacillin (bacterial isolates; H. influenzae SB1) | Tobramycin MIC + Peptide (bacterial isolates; P. aeruginosa PA008)
0.75: FIC [1, 8] | FIC ([1]; peptide + Piperacillin, P. aeruginosa 12) | FIC ([1]; peptide + Piperacillin, S. maltophilia 2) | FIC ([1]; peptide + Tobramycin, E. coli EC0006)
0.63: FIC ([1]; peptide + Tobramycin, S. maltophilia SMA027)
8 µg/mL: MIC (E. coli) | Peptide MIC + Tobramycin ([1]; A. baumannii ABI001) | Peptide MIC + Tobramycin ([1]; E. coli EC0006) | Peptide MIC + Tobramycin (bacterial isolates; A. baumannii ABI001) | Piperacillin MIC + Peptide (bacterial isolates; S. aureus SB2MRSA) | MIC (E. faecalis)
0.19: FIC ([1]; peptide + Tobramycin, S. maltophilia SMA031)
32 µg/mL: Peptide MIC Alone [1, 2] | Peptide MIC Alone [1, 3] | Peptide MIC Alone ([1]; E. coli EC0006, Tobramycin section) | Peptide MIC Alone ([1]; S. maltophilia 2, Piperacillin section) | Peptide MIC + Tobramycin ([1]; S. maltophilia SMA027) | Peptide MIC + Tobramycin ([1]; S. maltophilia SMA031) | MIC (S. maltophilia) | Peptide MIC Alone (bacterial isolates; [2]) | Piperacillin MIC + Peptide (bacterial isolates; A. calcoaceticus 3) | Peptide MIC Alone (bacterial isolates; [3]) | Peptide MIC + Tobramycin (bacterial isolates; B. cepacia BC002) | Peptide MIC + Piperacillin (bacterial isolates; S. maltophilia 13) | MIC (K. pneumoniae)
16 µg/mL: Peptide MIC + Piperacillin ([1]; A. calcoaceticus 3) | Piperacillin MIC + Peptide ([1]; A. calcoaceticus 3) | Peptide MIC + Piperacillin ([1]; S. maltophilia 2) | Piperacillin MIC + Peptide ([1]; S. maltophilia 2) | Piperacillin MIC + Peptide ([1]; S. marcescens SB1) | MIC (S. pyogenes) | Piperacillin MIC + Peptide (bacterial isolates; P. aeruginosa 23) | Piperacillin MIC + Peptide (bacterial isolates; S. aureus 19 MRSA) | Peptide MIC + Tobramycin (bacterial isolates; S. maltophilia SMA029) | Piperacillin MIC + Peptide (bacterial isolates; S. marcescens SB1)
128 µg/mL: MIC (P. aeruginosa) | Peptide MIC Alone ([1]; P. aeruginosa 12, Piperacillin section) | Peptide MIC Alone [1, 5] | Peptide MIC Alone [1, 6] | Peptide MIC Alone (bacterial isolates; [5]) | Peptide MIC Alone (bacterial isolates; [6])
